Test results: patent US20090281025A1, “INHIBITION OF TUMOR GROWTH AND METASTASIS BY ATF2-DERIVED PEPTIDES” (Mount Sinai School Of Medicine of New York University, priority 2004, published 2009)
Entries after “also recorded” stand apart in the source; their conditions may differ.

Tests used:
JNK = settings: cited from earlier work
[1] = system: Human melanoma cells LU1205; assay: Caspase and PARP cleavage immunoblot in LU1205 cells; assay type: cell-based; settings: peptides by transfection, UCN-01 (5 μm) 24 hours
Protocol: Human melanoma cells LU1205 were transfected with the nucleic acid molecules that encode either ATF2^51-100 peptide or ATF2^51-60 peptide. Twenty-four hours after transfection, cells were treated with of UCN-01 (5 μm) for 24 hours. Immunoblotting analysis was performed using caspase 9 and PARP antibodies, and β-actin was used as a loading control (FIG. 6A). The same experiment was performed in SW-1 cells (FIG. 6B). Stars point to the position of the uncleaved form whereas arrows point to the cleaved products.
Effect on Apoptosis. Assessed next was the degree of apoptosis in SW1 cells under normal growth (spontaneous) as well as following treatment with chemotherapeutic drugs. Cells were analyzed to detect spontaneous (basal) or induced apoptosis [following treatment with the kinase inhibitor UCN-01 (kindly provided by NCI repository) for 36 hours]. Apoptosis was measured by using FACS (Ivanov et al., Mol. Cell, 2001, 7:517-28) to quantify the percentage of hypodiploid nuclei undergoing DNA fragmentation. Nucleation as a marker of apoptosis was monitored via DAPI staining of cells at indicated time points after their treatment. Caspase activity was monitored by immunoblots using antibodies to caspase 9 (Santa Cruz). PARP cleavage was monitored by corresponding antibodies (PharMingen).

SW1 cells = assay: Tumor growth of SW1 cells constitutively expressing ATF2 peptides, injected subcutaneously; assay type: in vivo, mouse; settings: 10^6 SW1 cells SC, 18 days; control construct 1100 mm^3
Protocol: SW1 cells, which constitutively express the peptides indicated in FIG. 4A, were analyzed to detect expression of ATF2 peptides at the RNA level using RT-PCR. The indicated MW bands reflect the expected size product. SW1 cells (10^6) were injected subcutaneously into […] mice and tumor growth was monitored for 18 days, at which point tumors were removed and their size carefully assessed (FIG. 4B). Each group included 6 animals and each experiment was performed twice (P<0.01; T-test).
Inhibition of Tumor Growth. To examine the importance of the JNK association domain on ATF2, the possible role of a smaller peptide containing an intact JNK binding site (i.e., amino acids M^51T^52 of ATF2) was examined. To this end, three peptides of differing sizes (amino acids 51-80, 51-70, and 51-60) were compared to ATF2^51-100 peptide in their ability to inhibit tumor growth of SW1 cells in vivo. RT-PCR reactions confirmed the expression of these peptides' transcripts in the SW1 cells (FIG. 4A). […] However, expression of the 50aa peptide in these cells (constitutive expression based on selection of drug-resistant cells) decreased tumor size to 300 mm^3. Strikingly, constitutive expression of each of the 3 shorter peptides also elicited inhibition of melanoma growth that varied from 400-600 mm^3 (FIG. 4B). […] Further evaluation was performed on this 10 amino acid peptide.

human melanoma cells = settings: cited from earlier work
Jun2-Luc = Jun2-Luc luciferase reporter assay in SW1 cells; assay type: cell-based, mouse; settings: SW1 cells expressing peptide, luciferase after 18 hours
Protocol: SW1 cells constitutively expressing the indicated ATF2 peptides were transfected with either TRE-Luc (FIG. 5A) or with Jun2-Luc (FIG. 5B), and proteins were prepared for analysis of luciferase activity after 18 hours. Analysis was performed in duplicate, and the data reflect three independent experiments. SW1 cells expressing the ATF2 peptides were analyzed to establish the degree of spontaneous (basal) apoptosis as well as apoptosis 24 hours following treatment with the chemotherapeutic drug UCN-01 (FIG. 5C). The data represent triplicate analysis reproduced three times.
Alteration of ATF2 Transcriptional Activity. Assessed next was whether the short peptide caused any change in transcriptional activity mediated by ATF2 and its heterodimeric partners, using the TRE and Jun2 promoter sequences linked to the Luciferase marker gene. These reporter constructs (0.3 μg) were cotransfected with the respective expression vectors into melanoma cells (5×10^5) using Lipofectamine (Invitrogen). Luciferase activity was measured using the Luciferase assay system (Promega).

[2] = system: MCF7 human breast cancer cells; settings: cited from earlier work
[3] = system: LU1205 human melanoma cells; assay: Growth of LU1205 human melanoma tumors expressing ATF2 peptide in nude mice; assay type: in vivo, mouse
Description: (§1) LU1205 or FEMX human melanoma tumor-derived cell lines that constitutively express ATF2^51-100 peptide or that contain control vector were each injected subcutaneously into a group of 6 nude mice (10^6 cells per injection) per cell line per experiment. […] The data shown represent three experiments. Bars represent standard deviation, P<0.0015. […] The data shown represent three experiments. Bars represent standard deviation, P<0.0021.
(§2) The ability of expressed ATF2^51-100 peptide to affect the tumorigenicity of human melanoma cells in vivo was examined. To this end, growth of LU1205 and FEMX human melanoma cells were monitored in nude mice in the presence or absence of treatment that induced apoptosis in vitro. LU1205, FEMX and SW-1 cells that express control or ATF2^51-100 peptide were trypsinized, resuspended in PBS and injected SC (1×10^6) into 6-7 week old mice in the lower flank. When the tumor reached the size of about 50 mm^3, 10 μM of SB203580 was injected into 4 areas of the LU1205 tumors every 4 days during a 2 week period. For FEMX tumors, UCN-01 (5 mg/Kg) was fed by gavage, three times per week for a total of 2 weeks. Tumor growth was monitored every two days. Tissue samples were fixed in formalin and embedded in paraffin. Hematoxylin and eosin (H&E), TUNEL staining was performed as previously described (Bhoumik et al., Clin. Cancer Res., 2001; 2:331-342).

[4] = system: FEMX human melanoma cells; assay: Growth and TUNEL apoptosis of FEMX human melanoma tumors expressing ATF2 peptide in nude mice; assay type: in vivo
Description: as §1, §2

[5] = system: early-stage melanoma, melanocytes, in vitro transformed 293T cells; settings: cited from earlier work

Substance: ATF2^51-100: amino-terminal peptide of ATF2, amino acid residue 51 to 100 (about a 50 amino acid peptide), expressed in tumor cells (MTLKFGPARNDSVIVADQTPTPTRFLKNCEEVGLFNELASPFENEFKKAS; UniProt P15336 51-100, looked up, fragment)
- basal JNK activity (JNK): increased basal JNK activity
- binding to JNK (JNK): binds to JNK
- activation of caspase 9 (cleavage fragments) [1]: activation of caspase 9 even prior to treatment with UCN-01
- tumor size (SW1 cells): 300 mm^3
- degree of programmed cell death (spontaneous and induced apoptosis) (human melanoma cells; combined with an inhibitor of the p38 catalytic activity): increase in the degree of programmed cell death
- sensitivity to UV radiation or mitomycin C, adriamycin and verapamil, or UCN-01 (apoptosis assays) (human melanoma cells; compared with three other 50 amino acid amino-terminal ATF2 peptides): most efficient increase in the sensitivity
- cell surface expression of Fas (human melanoma cells; late stage melanoma cells): increased cell surface expression of Fas
- Jun2-Luc transcriptional activity (Jun2-Luc): efficiently inhibited
- sensitization by ATF2 peptide [2]: also observed
- tumor growth rate ([3]; LU1205 cells constitutively expressing peptide, SC in nude mice): reduced the growth rates; also recorded: inhibits growth
- tumor growth with additional treatment ([3]; peptide-expressing LU1205 tumors plus p38 inhibitor SB203580 10 μM intratumoral): additional decrease in growth
- tumor growth rate ([4]; FEMX cells constitutively expressing peptide, SC in nude mice): reduced the growth rates; also recorded: inhibits growth
- tumor growth with additional treatment ([4]; peptide-expressing FEMX tumors plus UCN-01 5 mg/Kg by gavage): additional decrease in growth
- degree of apoptosis in tumors (TUNEL) ([4]; peptide-expressing tumors upon exposure to additional treatment): marked increase in the degree of apoptosis
- sensitization by ATF2 peptide [5]: not in early-stage melanoma, or melanocytes, or in in vitro transformed 293T cells
